Our source for the relative viability values is the supplement of paper PMC10307832.

Common to all, as to test: relative viability (nuclei count vs DMSO), 5 days (fraction); higher = more cells survive
Compound in the assay “BAY61-3606 + Luminespib”: COC1=C(C=C(C=C1)C2=CC3=NC=CN3C(=N2)NC4=C(C=CC=N4)C(=O)N)OC [BAY61-3606] + CCNC(=O)c1noc(-c2cc(C(C)C)c(O)cc2O)c1-c1ccc(CN2CCOCC2)cc1 [Luminespib] (partner 0.01 µM)
Put shortly:
(§1)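 Each reported value is a median over duplicate plates. It expresses relative viability: treated-well nuclei count divided by vehicle-well nuclei count. Lung cancer cell lines in 1536-well plates were dosed by pin tool a day after seeding, alone with one drug or with a fixed anchor-drug dose plus five library-drug doses (not always all listed) in √10 steps, and nuclei were counted after 5 days.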

Compound in the assay “BAY61-3606 + Decitabine”: COC1=C(C=C(C=C1)C2=CC3=NC=CN3C(=N2)NC4=C(C=CC=N4)C(=O)N)OC [BAY61-3606] + Nc1ncn([C@H]2C[C@H](O)[C@@H](CO)O2)c(=O)n1 [Decitabine] (partner 2 µM)
Put shortly:
as §1

Compound in the assay “BAY61-3606 + Phenformin”: COC1=C(C=C(C=C1)C2=CC3=NC=CN3C(=N2)NC4=C(C=CC=N4)C(=O)N)OC [BAY61-3606] + N=C(N)NC(=N)NCCc1ccccc1 [Phenformin] (partner 250 µM)
Put shortly:
as §1

Compound in the assay “Doxorubicin + Linsitinib”: COc1cccc2c1C(=O)c1c(O)c3c(c(O)c1C2=O)C[C@@](O)(C(=O)CO)C[C@@H]3O[C@H]1C[C@H](N)[C@H](O)[C@H](C)O1 [Doxorubicin] + C[C@]1(O)C[C@@H](c2nc(-c3ccc4ccc(-c5ccccc5)nc4c3)c3c(N)nccn32)C1 [Linsitinib] (partner 1 µM)
Put shortly:
as §1

In the case of LCLC-103H, the relative viability with BAY61-3606 + Luminespib (first compound 0.02 µM) worked out at 0.989; in the assay with BAY61-3606 + Luminespib (first compound 0.06325 µM), 1.06; with BAY61-3606 + Luminespib (first compound 0.2 µM), 0.969; with BAY61-3606 + Luminespib (first compound 0.6325 µM) it was 1.06; in the assay with BAY61-3606 + Luminespib (first compound 2 µM), 0.737; with BAY61-3606 + Decitabine (first compound 0.02 µM), 0.773. In addition, the relative viability in the assay with BAY61-3606 + Decitabine (first compound 0.06325 µM) amounted to 0.707; with BAY61-3606 + Decitabine (first compound 0.2 µM) it was 0.75; in the assay with BAY61-3606 + Decitabine (first compound 0.6325 µM), 0.748; with BAY61-3606 + Decitabine (first compound 2 µM), 0.773; with BAY61-3606 + Phenformin (first compound 0.02 µM), 0.342; with BAY61-3606 + Phenformin (first compound 0.06325 µM), 0.328. For the same cell line, the relative viability with BAY61-3606 + Phenformin (first compound 0.2 µM) is 0.297; with BAY61-3606 + Phenformin (first compound 0.6325 µM), 0.328; with BAY61-3606 + Phenformin (first compound 2 µM) it was 0.352; with Doxorubicin + Linsitinib (first compound 0.001 µM), 0.935; in the assay with Doxorubicin + Linsitinib (first compound 0.003162 µM), 1.17; with Doxorubicin + Linsitinib (first compound 0.01 µM), 1.06. Besides, the relative viability worked out at 1.17 in the assay with Doxorubicin + Linsitinib (first compound 0.03162 µM) and 1.14 with Doxorubicin + Linsitinib (first compound 0.1 µM).

For the cell line COR-L 105, the relative viability is 0.827 with BAY61-3606 + Luminespib (first compound 0.02 µM); 0.689 with BAY61-3606 + Luminespib (first compound 0.06325 µM); 0.75 with BAY61-3606 + Luminespib (first compound 0.2 µM); 0.76 with BAY61-3606 + Luminespib (first compound 0.6325 µM); 0.503 with BAY61-3606 + Luminespib (first compound 2 µM); 0.764 with BAY61-3606 + Decitabine (first compound 0.02 µM). The relative viability stood at 0.672 with BAY61-3606 + Decitabine (first compound 0.06325 µM); 0.543 with BAY61-3606 + Decitabine (first compound 0.2 µM); 0.63 with BAY61-3606 + Decitabine (first compound 0.6325 µM); 0.475 with BAY61-3606 + Decitabine (first compound 2 µM); 0.494 with BAY61-3606 + Phenformin (first compound 0.02 µM); 0.506 in the assay with BAY61-3606 + Phenformin (first compound 0.06325 µM). Further, the relative viability turned out to be 0.435 in the assay with BAY61-3606 + Phenformin (first compound 0.2 µM); 0.413 in the assay with BAY61-3606 + Phenformin (first compound 0.6325 µM); 0.323 in the assay with BAY61-3606 + Phenformin (first compound 2 µM); 1.05 with Doxorubicin + Linsitinib (first compound 0.001 µM); 1.04 with Doxorubicin + Linsitinib (first compound 0.003162 µM); 0.955 with Doxorubicin + Linsitinib (first compound 0.01 µM). Besides, the relative viability in the assay with Doxorubicin + Linsitinib (first compound 0.03162 µM) amounted to 0.557; with Doxorubicin + Linsitinib (first compound 0.1 µM) it was 0.433.

Take NCI-H1437: the relative viability with BAY61-3606 + Luminespib (first compound 0.02 µM) came to 1.14; with BAY61-3606 + Luminespib (first compound 0.06325 µM) it was 1.15; with BAY61-3606 + Luminespib (first compound 0.2 µM), 1; with BAY61-3606 + Luminespib (first compound 0.6325 µM) it was 1.19; with BAY61-3606 + Luminespib (first compound 2 µM), 1.04; with BAY61-3606 + Decitabine (first compound 0.02 µM) it was 0.579. In addition, the relative viability was 0.602 in the assay with BAY61-3606 + Decitabine (first compound 0.06325 µM); 0.564 in the assay with BAY61-3606 + Decitabine (first compound 0.2 µM); 0.563 in the assay with BAY61-3606 + Decitabine (first compound 0.6325 µM); 0.582 with BAY61-3606 + Decitabine (first compound 2 µM); 0.345 in the assay with BAY61-3606 + Phenformin (first compound 0.02 µM); 0.312 in the assay with BAY61-3606 + Phenformin (first compound 0.06325 µM). Moreover, the relative viability worked out at 0.304 in the assay with BAY61-3606 + Phenformin (first compound 0.2 µM); 0.283 in the assay with BAY61-3606 + Phenformin (first compound 0.6325 µM); 0.284 with BAY61-3606 + Phenformin (first compound 2 µM); 1 in the assay with Doxorubicin + Linsitinib (first compound 0.001 µM); 1.13 with Doxorubicin + Linsitinib (first compound 0.003162 µM); 0.965 in the assay with Doxorubicin + Linsitinib (first compound 0.01 µM). The relative viability with Doxorubicin + Linsitinib (first compound 0.03162 µM) was found to be 0.591; with Doxorubicin + Linsitinib (first compound 0.1 µM), 0.28.

Take H3255: the relative viability with BAY61-3606 + Luminespib (first compound 0.02 µM) amounted to 0.966; with BAY61-3606 + Luminespib (first compound 0.06325 µM), 0.896; in the assay with BAY61-3606 + Luminespib (first compound 0.2 µM) it was 0.951; with BAY61-3606 + Luminespib (first compound 0.6325 µM), 1.06; with BAY61-3606 + Luminespib (first compound 2 µM), 0.961; in the assay with BAY61-3606 + Decitabine (first compound 0.02 µM) it was 0.529. Moreover, the relative viability came to 0.571 in the assay with BAY61-3606 + Decitabine (first compound 0.06325 µM); 0.677 in the assay with BAY61-3606 + Decitabine (first compound 0.2 µM); 0.779 with BAY61-3606 + Decitabine (first compound 0.6325 µM); 0.509 with BAY61-3606 + Decitabine (first compound 2 µM); 0.351 with BAY61-3606 + Phenformin (first compound 0.02 µM); 0.342 with BAY61-3606 + Phenformin (first compound 0.06325 µM). The relative viability with BAY61-3606 + Phenformin (first compound 0.2 µM) worked out at 0.371; in the assay with BAY61-3606 + Phenformin (first compound 0.6325 µM), 0.399; with BAY61-3606 + Phenformin (first compound 2 µM), 0.342; in the assay with Doxorubicin + Linsitinib (first compound 0.001 µM), 0.906; with Doxorubicin + Linsitinib (first compound 0.003162 µM), 1.07; with Doxorubicin + Linsitinib (first compound 0.01 µM) it was 0.908. For the same cell line, the relative viability in the assay with Doxorubicin + Linsitinib (first compound 0.03162 µM) came to 0.9; with Doxorubicin + Linsitinib (first compound 0.1 µM), 0.938.

Regarding NCI-H2009, the relative viability with BAY61-3606 + Luminespib (first compound 0.02 µM) stood at 1.08; with BAY61-3606 + Luminespib (first compound 0.06325 µM), 1.04; with BAY61-3606 + Luminespib (first compound 0.2 µM), 0.976; with BAY61-3606 + Luminespib (first compound 0.6325 µM), 0.992; in the assay with BAY61-3606 + Luminespib (first compound 2 µM), 0.902; in the assay with BAY61-3606 + Decitabine (first compound 0.02 µM) it was 0.368. Besides, the relative viability worked out at 0.359 in the assay with BAY61-3606 + Decitabine (first compound 0.06325 µM); 0.352 with BAY61-3606 + Decitabine (first compound 0.2 µM); 0.365 in the assay with BAY61-3606 + Decitabine (first compound 0.6325 µM); 0.415 with BAY61-3606 + Decitabine (first compound 2 µM); 0.524 with BAY61-3606 + Phenformin (first compound 0.02 µM); 0.38 with BAY61-3606 + Phenformin (first compound 0.06325 µM). The relative viability was 0.469 in the assay with BAY61-3606 + Phenformin (first compound 0.2 µM); 0.524 with BAY61-3606 + Phenformin (first compound 0.6325 µM); 0.424 with BAY61-3606 + Phenformin (first compound 2 µM); 1.16 in the assay with Doxorubicin + Linsitinib (first compound 0.001 µM); 1.15 with Doxorubicin + Linsitinib (first compound 0.003162 µM); 1.28 with Doxorubicin + Linsitinib (first compound 0.01 µM). Moreover, the relative viability with Doxorubicin + Linsitinib (first compound 0.03162 µM) stood at 0.953; in the assay with Doxorubicin + Linsitinib (first compound 0.1 µM) it was 0.639.

Regarding NCI-H1755, the relative viability in the assay with BAY61-3606 + Luminespib (first compound 0.02 µM) worked out at 0.367; with BAY61-3606 + Luminespib (first compound 0.06325 µM), 0.495; with BAY61-3606 + Luminespib (first compound 0.2 µM), 0.397; with BAY61-3606 + Luminespib (first compound 0.6325 µM), 0.433; in the assay with BAY61-3606 + Luminespib (first compound 2 µM) it was 0.384; in the assay with BAY61-3606 + Decitabine (first compound 0.02 µM), 0.671. Besides, the relative viability is 0.666 with BAY61-3606 + Decitabine (first compound 0.06325 µM); 0.656 in the assay with BAY61-3606 + Decitabine (first compound 0.2 µM); 0.673 with BAY61-3606 + Decitabine (first compound 0.6325 µM); 0.773 with BAY61-3606 + Decitabine (first compound 2 µM); 0.666 with BAY61-3606 + Phenformin (first compound 0.02 µM); 0.6 in the assay with BAY61-3606 + Phenformin (first compound 0.06325 µM). Also, the relative viability turned out to be 0.578 with BAY61-3606 + Phenformin (first compound 0.2 µM); 0.656 with BAY61-3606 + Phenformin (first compound 0.6325 µM); 0.59 in the assay with BAY61-3606 + Phenformin (first compound 2 µM); 0.971 in the assay with Doxorubicin + Linsitinib (first compound 0.001 µM); 0.98 with Doxorubicin + Linsitinib (first compound 0.003162 µM); 1.02 with Doxorubicin + Linsitinib (first compound 0.01 µM). Further, the relative viability with Doxorubicin + Linsitinib (first compound 0.03162 µM) amounted to 1.05; with Doxorubicin + Linsitinib (first compound 0.1 µM), 1.01.
